The structures appear in SMILES notation.

Data set [1] can be described thus: Hepatocyte toxicity. Format: cell-based, human. The note with it: human; read-out: HepG2 EC50 (hepatocyte toxicity). In outline:
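Duplicate 12-point dose curves, starting at 5 μM or 50 μM, gave EC50s for both parasite and host toxicity. Compound was added to human HepG2 hepatocytes 2 h before infection with freshly dissected P. berghei sporozoites. Surviving liver-stage forms were quantified by luminescence after 48 h.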

Data set [2] relates to resistant parasites generated by MMV007564. In words: Cross-resistance to parasites selected with MMV007564. The data set is classed as cell-based, Plasmodium falciparum. An excerpt:
While we found an overall lack of pre-existing resistance, analysing the onset of resistance was critical, as compounds resulting in rapid resistance are not ideal for clinical development. We therefore sought to create drug-resistant parasites using a variety of different selection methods. We implemented either a high-dose method or a ramp-up/pulse method for our in vitro selections. Two of the 50 compounds—MMV028895 and MMV665824—were removed from the selection study during experimentation. […] Out of the remaining 48 compounds, resistant parasites were obtained for 23 (Supplementary Data 1). As each selection was performed in triplicate with three independent cultures, we succeeded in generating a total of 66 resistant cultures. Parasites resistant to MMV026596 were not obtained despite 100 days of selection, but the cultures acquired hypersensitivity to mefloquine with a 10-fold reduction in EC50 compared with its parental line, 3D7. For the remaining 24 compounds, acquisition of resistant parasites was unsuccessful despite numerous attempts over an extensive period of time.

The test system of data set [3] is PfATP4-Mut1 (PfATP4 V178I, parent W2). Kind of data set: Cross-resistance EC50 assay, PfATP4-Mut1. Format: cell-based, Plasmodium falciparum. The note with it: loss of efficacy. From the text: (§1) To evaluate potential overlapping activity against known antimalarial drug targets, we performed dose-response studies with each compound against our assembled set of drug-resistant lines and their corresponding parents, in an asexual blood stage proliferation assay (Table 1). Comparisons were made to the drug-sensitive strain 3D7 when a parent was unavailable (TM90C2A, W2 and Dd2). As laboratories conducted EC50 assays with different strains and protocols, all comparisons were made between assays from the same laboratory and under the same assay conditions. Compounds displaying >5-fold EC50 shifts relative to the parent or sensitive strain were flagged as having potentially non-novel targets. Average fold shifts per strain ranged from 0.82 to 2.34, with a median of 1.23 indicating there was not common resistance to any one resistant clone. […]
(§2) The 48-h assay was carried out in a 96-well format following standard methods using the ^3H-hypoxanthine incorporation assay. […] Radioactivity was measured using a microbeta counter. […] All assays were conducted in triplicate using three independently grown cultures, and EC50 values were determined using the XLfit add-in module for Excel (version 2.3.1) from Grafit (version 5.3.1.3), where parameter h is the assay hill slope, x is the compound concentration and y is the inhibition of growth effect. […]

For data set [4], the system named is PfATP4-Mut3 (PfATP4 F917L, parent 3D7). Format: cell-based, Plasmodium falciparum.
Description: as §1, §2

`CN(C)S(=O)(=O)c1cc(-c2ccc3nccc(-c4cccc(S(N)(=O)=O)c4)c3c2)cnc1N` [MMV024038]: in data set [1], the EC50 was 0.146 µM.

As for `CN(C)CCCN(C)C(=O)C1Cc2cc(-c3ccccc3)ccc2N1S(=O)(=O)c1ccccc1` (stereo not shown) [MMV028895], the “cross-resistance to resistant parasites generated by MMV007564” value in data set [2] is “exhibited cross-resistance”.

As for `O=C(Nc1ccsc1C(=O)NC1CCCCC1)c1ccc(F)cc1` [MMV665939], the “EC50 fold-shift, PfATP4-Mut1 compared with 3D7” value in data set [3] turned out to be 16.6 ×.

As for `CCN(CC)S(=O)(=O)c1ccc(-c2csc(Nc3ccc(C)c(C)c3)n2)cc1` [MMV009108], in data set [4], the “EC50 fold-shift, ATP4-Mut3 vs parent” value is listed as 5.2 ×.
